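Five concentrations, 48 hours, 96-well plates. GI50: concentration for 50% inhibition of growth. At the TGI there is no net growth.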
Key:
Assay in all cases: NCI tumour cell line growth inhibition, 48 h
SNB-19 CNS = tested on: SNB-19 CNS
SK-MEL-2 melanoma = tested on: SK-MEL-2 melanoma
PC-3 prostate = tested on: PC-3 prostate
OVCAR-8 ovarian = tested on: OVCAR-8 ovarian
HCT-116 colon = tested on: HCT-116 colon
UO-31 renal = tested on: UO-31 renal
SNB-75 CNS = tested on: SNB-75 CNS
K-562 leukemia = tested on: K-562 leukemia
HCT-15 colon = tested on: HCT-15 colon
OVCAR-3 ovarian = tested on: OVCAR-3 ovarian
SK-OV-3 ovarian = tested on: SK-OV-3 ovarian
MDA-MB-231 breast = tested on: MDA-MB-231 breast
SR leukemia = tested on: SR leukemia
SF-295 CNS = tested on: SF-295 CNS
OVCAR-5 ovarian = tested on: OVCAR-5 ovarian
UACC-62 melanoma = tested on: UACC-62 melanoma
HS 578T breast = tested on: HS 578T breast
SW-620 colon = tested on: SW-620 colon
IGROV1 ovarian = tested on: IGROV1 ovarian
M14 melanoma = tested on: M14 melanoma
SN12C renal = tested on: SN12C renal
SF-539 CNS = tested on: SF-539 CNS
ACHN renal = tested on: ACHN renal
MALME-3M melanoma = tested on: MALME-3M melanoma
DU-145 prostate = tested on: DU-145 prostate
NCI-H522 lung = tested on: NCI-H522 lung
NCI-H460 lung = tested on: NCI-H460 lung
LOX IMVI melanoma = tested on: LOX IMVI melanoma
SK-MEL-28 melanoma = tested on: SK-MEL-28 melanoma
BT-549 breast = tested on: BT-549 breast
HOP-92 NSCLC = tested on: HOP-92 NSCLC
CAKI-1 renal = tested on: CAKI-1 renal
KM12 colon = tested on: KM12 colon
HL-60(TB) leukemia = tested on: HL-60(TB) leukemia
RXF 393 renal = tested on: RXF 393 renal
UACC-257 melanoma = tested on: UACC-257 melanoma
NCI-H23 lung = tested on: NCI-H23 lung
HCC-2998 colon = tested on: HCC-2998 colon
MDA-MB-435 = tested on: MDA-MB-435
U251 CNS = tested on: U251 CNS
HT29 colon = tested on: HT29 colon
A498 renal = tested on: A498 renal
MCF7 breast = tested on: MCF7 breast
TK-10 renal = tested on: TK-10 renal
A549 NSCLC = tested on: A549 NSCLC
SF-268 CNS = tested on: SF-268 CNS
RPMI-8226 leukemia = tested on: RPMI-8226 leukemia
786-0 renal = tested on: 786-0 renal
NCI-H226 lung = tested on: NCI-H226 lung
OVCAR-4 ovarian = tested on: OVCAR-4 ovarian
HOP-62 NSCLC = tested on: HOP-62 NSCLC
SK-MEL-5 melanoma = tested on: SK-MEL-5 melanoma
COLO 205 colon = tested on: COLO 205 colon
T-47D breast = tested on: T-47D breast
MOLT-4 leukemia = tested on: MOLT-4 leukemia
NCI/ADR-RES ovarian = tested on: NCI/ADR-RES ovarian

CC(C)C[C@H](NC(=O)Cn1ccc(Nc2ccccc2)cc1=O)B(O)O
GI50 (SNB-19 CNS): 16.6 µM
TGI (SNB-19 CNS): > 100 µM
GI50 (SK-MEL-2 melanoma): 1.81 µM
TGI (SK-MEL-2 melanoma): 21.3 µM
GI50 (PC-3 prostate): 5.06 µM
TGI (PC-3 prostate): 36 µM
GI50 (OVCAR-8 ovarian): 5.47 µM
TGI (OVCAR-8 ovarian): > 100 µM
GI50 (HCT-116 colon): 0.852 µM
TGI (HCT-116 colon): 5.02 µM
GI50 (UO-31 renal): 5.59 µM
TGI (UO-31 renal): 39.6 µM
GI50 (SNB-75 CNS): 4.54 µM
TGI (SNB-75 CNS): 25.3 µM
GI50 (K-562 leukemia): 3.67 µM
TGI (K-562 leukemia): > 100 µM
GI50 (HCT-15 colon): 8.66 µM
TGI (HCT-15 colon): > 100 µM
GI50 (OVCAR-3 ovarian): 0.512 µM
TGI (OVCAR-3 ovarian): 2.78 µM
GI50 (SK-OV-3 ovarian): 11.5 µM
TGI (SK-OV-3 ovarian): > 100 µM
GI50 (MDA-MB-231 breast): 3.09 µM
TGI (MDA-MB-231 breast): 15.2 µM
GI50 (SR leukemia): 0.398 µM
TGI (SR leukemia): > 100 µM
GI50 (SF-295 CNS): 3.75 µM
TGI (SF-295 CNS): 40.1 µM
GI50 (OVCAR-5 ovarian): 6.24 µM
TGI (OVCAR-5 ovarian): 90 µM
GI50 (UACC-62 melanoma): 2.44 µM
TGI (UACC-62 melanoma): 18.1 µM
GI50 (HS 578T breast): 1.86 µM
TGI (HS 578T breast): 7.16 µM
GI50 (SW-620 colon): 2 µM
TGI (SW-620 colon): 23.9 µM
GI50 (IGROV1 ovarian): 6.27 µM
TGI (IGROV1 ovarian): > 100 µM
GI50 (M14 melanoma): 1.74 µM
TGI (M14 melanoma): 13.7 µM
GI50 (SN12C renal): 5.17 µM
TGI (SN12C renal): 28 µM
GI50 (SF-539 CNS): 0.781 µM
TGI (SF-539 CNS): 5.81 µM
GI50 (ACHN renal): 3.04 µM
TGI (ACHN renal): > 100 µM
GI50 (MALME-3M melanoma): 2.08 µM
TGI (MALME-3M melanoma): 8.77 µM
GI50 (DU-145 prostate): 10.7 µM
TGI (DU-145 prostate): > 100 µM
GI50 (NCI-H522 lung): 0.932 µM
TGI (NCI-H522 lung): 6.44 µM
GI50 (NCI-H460 lung): 8.41 µM
TGI (NCI-H460 lung): 42.5 µM
GI50 (LOX IMVI melanoma): 0.645 µM
TGI (LOX IMVI melanoma): 2.27 µM
GI50 (SK-MEL-28 melanoma): 0.665 µM
TGI (SK-MEL-28 melanoma): 4.49 µM
GI50 (BT-549 breast): 1.19 µM
TGI (BT-549 breast): 11.7 µM
GI50 (HOP-92 NSCLC): 2.49 µM
TGI (HOP-92 NSCLC): 8.23 µM
GI50 (CAKI-1 renal): 4.02 µM
TGI (CAKI-1 renal): 60.4 µM
GI50 (KM12 colon): 3.08 µM
TGI (KM12 colon): 12.4 µM
GI50 (HL-60(TB) leukemia): 3.32 µM
TGI (HL-60(TB) leukemia): 72.6 µM
GI50 (RXF 393 renal): 1.81 µM
TGI (RXF 393 renal): 4.78 µM
GI50 (UACC-257 melanoma): 1.3 µM
TGI (UACC-257 melanoma): 7.68 µM
GI50 (NCI-H23 lung): 3.45 µM
TGI (NCI-H23 lung): > 100 µM
GI50 (HCC-2998 colon): 2.02 µM
TGI (HCC-2998 colon): 4.76 µM
GI50 (MDA-MB-435): 0.593 µM
TGI (MDA-MB-435): 2.29 µM
GI50 (U251 CNS): 5.04 µM
TGI (U251 CNS): > 100 µM
GI50 (HT29 colon): 1.06 µM
TGI (HT29 colon): 13.2 µM
GI50 (A498 renal): 1.07 µM
TGI (A498 renal): 6.78 µM
GI50 (MCF7 breast): 0.427 µM
TGI (MCF7 breast): > 100 µM
GI50 (TK-10 renal): 3.28 µM
TGI (TK-10 renal): 25.3 µM
GI50 (A549 NSCLC): 8.34 µM
TGI (A549 NSCLC): > 100 µM
GI50 (SF-268 CNS): 2.88 µM
TGI (SF-268 CNS): 18.6 µM
GI50 (RPMI-8226 leukemia): 0.345 µM
TGI (RPMI-8226 leukemia): 0.949 µM
GI50 (786-0 renal): 5.55 µM
TGI (786-0 renal): > 100 µM
GI50 (NCI-H226 lung): 0.352 µM
TGI (NCI-H226 lung): 1.47 µM
GI50 (OVCAR-4 ovarian): 5.68 µM
TGI (OVCAR-4 ovarian): > 100 µM
GI50 (HOP-62 NSCLC): 6.23 µM
TGI (HOP-62 NSCLC): 40.9 µM
GI50 (SK-MEL-5 melanoma): 0.62 µM
TGI (SK-MEL-5 melanoma): 2.88 µM
GI50 (COLO 205 colon): 8.25 µM
TGI (COLO 205 colon): > 100 µM
GI50 (T-47D breast): 1.01 µM
TGI (T-47D breast): 3.38 µM
GI50 (MOLT-4 leukemia): 0.468 µM
TGI (MOLT-4 leukemia): 11.7 µM
GI50 (NCI/ADR-RES ovarian): 65.6 µM
TGI (NCI/ADR-RES ovarian): > 100 µM
